Consider 1 compound from US10086039B2, “Lamin A, an activator of longevity/anti-aging SIRT1 protein” (THE UNIVERSITY OF HONG KONG, priority 2012, dated 2018).

Structures are written as SMILES. Where only a bound is given, the exact number is not on record here.

For assay [1], the system named is NM-associated SIRT1. The experiment in a line: NM association of SIRT1 in BMSCs (subcellular fractionation, Western blotting). The format is cell-based, mouse. As to conditions: wild-type and Zmpste24−/− BMSCs, different concentrations, compared to untreated controls. Here is the method:
Cells were fractionated as described (Mendez and Stillman, 2000). Briefly, the cells were suspended in 100 μl ice-cold buffer A (10 mM HEPES, pH 7.9, 10 mM KCl, 1.5 mM MgCl2, 0.34 M sucrose, 10% glycerol, 1 mM DTT, protease inhibitors). After the addition of 0.1% Triton X-100, the cell suspension was mixed gently, incubated on ice for 5 min and centrifuged at 1300×g at 4° C. for 4 min. The supernatant (S1) was transferred to a new tube and clarified by high-speed centrifugation (12000×g, 10 min, 4° C.). The remaining nuclei pellet (P1) was washed once with 100 μl buffer A and then resuspended in 100 μl buffer A supplemented with 1 mM CaCl2 and 2 units of micrococcal nuclease, and incubated at 37° C. for 15 min. The reaction was stopped by adding 1 mM EGTA and the suspension was then centrifuged at 1300×g at 4° C. for 4 min. The resultant pellet was resuspended in 100 μl of buffer B (3 mM EDTA, 0.2 mM EGTA, 1 mM DTT) and centrifuged at 1700×g at 4° C. for 4 min. […]
Western blotting was performed as described previously (Liu et al., 2005). Relative band intensity was measured by IMAGE J® and normalized to corresponding wild-type or untreated controls as indicated. […]

Assay [2] has as its system Gadd45α and catalase. The experiment in a line: Gadd45α and catalase expression in Zmpste24−/− BMSCs (Western blotting). The format is cell-based, mouse. The method, then: (FIG. 4A) Resveratrol (10 μM) increased colony-forming capacity of Zmpste24^−/− BMSCs. Colony-forming assay was performed on freshly isolated bone marrow cells in 10 cm dishes in the presence and absence of resveratrol. (FIG. 4B) Colony number counting. […] Data represent mean±SEM, n=4. *P<0.05, RSV Vs Vehicle. (FIG. 4C) Left, level of prelamin A pull down by anti SIRT1 immunoprecipitates in BMSCs treated or untreated with resveratrol (2 μM) was determined by Immunoblotting; right, level of acetylated Foxo3a in resveratrol was assessed by Immunoblotting. (FIG. 4D) Levels of catalase and Gadd45α in SIRT1 or scramble siRNA treated Zmpste24^−/− BMSCs in the presence or absence of resveratrol (10 μM) determined by Western blotting. […] (FIG. 4F) Quantification of (FIG. 4E). […] (FIG. 4gG Levels of H3K9ac and IR-induced-H2AX with or without ectopic SIRT1 in wild-type and Zmpste24 null BMSCs were assessed by Western blotting. (FIG. 4H) Ectopic SIRT1 increased the colony-forming capacity of Zmpste24^−/− and wild-type BMSCs. Colony-forming assay was performed on freshly isolated cells in 6 cm dishes. (FIG. 4I) Quantification of (FIG. 4H). Data represent mean±SEM, n=5. *P<0.05, SIRT1 Vs Mock.
Western blotting was performed as described previously (Liu et al., 2005). Relative band intensity was measured by IMAGE J® and normalized to corresponding wild-type or untreated controls as indicated.

The test system of assay [3] is Zmpste24−/− mice. Briefly: Survival and body weight of Zmpste24−/− mice treated via drinking water. It is filed as in vivo, mouse. As to conditions: resveratrol 20 μg/ml in drinking water. Here is the method:
Zmpste24^−/− mice have been described previously (Pendas et al., 2002). Mouse experimentation was performed in accordance with the guidelines of the Committee on the Use of Live Animals in Teaching and Research (CULATR) at the University of Hong Kong. New-born Zmpste24^−/− mice and wild-type controls were fed with resveratrol (20 μg/ml) or N-acetyl Cysteine (1 mg/ml) in drinking water. The survival of resveratrol-treated, NAC-treated, or vehicle-treated Zmpste24^−/− mice was recorded and their body weight was monitored weekly. The trabecular bone organization and bone mineral density were determined by micro-CT. The survival rate was analyzed by Kaplan-Meier method and statistical comparison was performed by Log-rank (Mantel-Cox) Test.
Briefly, resveratrol was supplemented at a concentration of 20 μg/ml in drinking water. Four months after treatment, BMSCs were collected for examination and comparison between resveratrol-treated and vehicle-treated Zmpste24^−/− mice.

For assay [4], the system named is AMPK. As to conditions: cited from earlier work.

Regarding `Oc1ccc(C=Cc2cc(O)cc(O)c2)cc1` [resveratrol], the “NM-associated SIRT1” value in assay [1] is listed as “increased”. In assay [2] (Zmpste24−/− BMSCs with SIRT1 knocked down), the “stimulating effect on expression of Gadd45α and catalase” value is reported as “abolished the stimulating effect”. The “expression of Gadd45α and catalase” value in assay [2] (Zmpste24−/− BMSCs, resveratrol 10 μM) is reported as “increased”. In addition, in assay [3] (by 26 weeks after birth), the animals still alive is given as ~60%. Moreover, in assay [3] (compared to vehicle-treated controls), the body weight loss result is “significantly slowed down”. This compound also yielded a median survival in assay [3] (vehicle 20 weeks) of 27 weeks. Also, the “maximum lifespan (mean lifespan of the longest-lived 10% of the animals)” value in assay [3] (vehicle 27.5 weeks) amounted to 33.5 weeks. In addition, the “doses activating AMPK independent of SIRT1” value in assay [4] (high doses) was ≥ 50 µM. In assay [4] (low doses), the “doses activating AMPK in a SIRT1-dependent manner” value is ≤ 25 µM.
